IC50 data for 23 molecules are collected here from patent US8791102B2, “Acetanilide sphingosine-1-phosphate receptor antagonists” (Exelixis, Inc., priority 2008, dated 2014).

The experiment addresses T1, human S1P1 receptors (Homo sapiens, UniProt P21453).
T1 construct: host or cells: HEK293
The experiment is described as follows: S1P1R antagonist assay (fluorescent membrane potential dye, cAMP readout). Type of experiment: cell-based. As to conditions: HEK293 cells expressing human S1P1 receptors and CNG channel; 500 nM NECA; S1P1R agonist 10 nM; 90 minutes; read-out: EC50 or IC50 value.

T1 sequence (P21453 whole entry): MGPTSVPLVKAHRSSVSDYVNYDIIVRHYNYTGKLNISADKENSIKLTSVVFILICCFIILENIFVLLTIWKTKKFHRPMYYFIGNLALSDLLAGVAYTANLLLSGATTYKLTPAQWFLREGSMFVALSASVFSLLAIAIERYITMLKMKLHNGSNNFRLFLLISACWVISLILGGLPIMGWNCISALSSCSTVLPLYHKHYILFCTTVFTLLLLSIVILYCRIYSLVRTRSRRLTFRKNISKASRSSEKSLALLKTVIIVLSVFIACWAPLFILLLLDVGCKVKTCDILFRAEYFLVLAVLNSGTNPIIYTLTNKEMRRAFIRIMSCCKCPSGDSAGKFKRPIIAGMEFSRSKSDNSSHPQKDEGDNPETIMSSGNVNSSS

`O=C(Cc1cnc[nH]1)N[C@@H](Cc1ccccc1)C(=O)Nc1ccc(Oc2ccc(Cl)cc2)cc1` [Compound 204, (S)-2-(2-(1H-imidazol-5-yl)acetamido)-N-(4-(4-chlorophenoxy)phenyl)-3-phenylpropanamide]: the IC50 (as a rule, the concentration at which inhibition is half-maximal) fell in the range of 300 to 1000 nM. The same measure for `O=C(CCN1C(=O)c2ccccc2C1=O)NC(COCc1ccccc1)C(=O)Nc1ccc(Oc2ccccc2)cc1` (centres unmarked) [Compound 322, N-(2-oxo-1-{[(phenylmethyl)oxy]methyl}-2-{[4-(phenyloxy)phenyl]amino}ethyl)-3-(1,3-dioxoisoindolin-2-yl)propanamide]: > 1000 nM; for `CCCCC(C)C(=O)NC(COCc1ccccc1)C(=O)Nc1ccc(Oc2ccccc2)cc1` (centres unmarked) [Compound 346, 2-methyl-N-(2-oxo-1-{[(phenylmethyl)oxy]methyl}-2-{[4-(phenyloxy)phenyl]amino}ethyl)hexanamide]: 300 to 1000 nM; for `O=C(CN1CCN(c2ncccc2C(F)(F)F)CC1)N[C@@H](COCc1ccccc1)C(=O)Nc1ccc(Oc2ccc(F)cc2)cc1` [Compound 112, (S)-3-(benzyloxy)-N-(4-(4-fluorophenoxy)phenyl)-2-(2-(4-(3-(trifluoromethyl)pyridin-2-yl)piperazin-1-yl)acetamido)propanamide]: > 1000 nM. Next, `COc1ccc(Oc2ccc(NC(=O)[C@H](COCc3ccccc3)NC(=O)Cc3c[nH]cn3)cc2)cc1` [Compound 202, (S)-2-(2-(1H-imidazol-4-yl)acetamido)-3-(benzyloxy)-N-(4-(4-methoxyphenoxy)phenyl)propanamide]: ≤ 300 nM; `Cc1noc(C)c1CC(=O)N[C@@H](COCc1ccccc1)C(=O)Nc1ccc(Oc2ccc(F)cc2)cc1` [Compound 150, (S)-3-(benzyloxy)-2-(2-(3,5-dimethylisoxazol-4-yl)acetamido)-N-(4-(4-fluorophenoxy)phenyl)propanamide]: ≤ 300 nM. Next, `O=C(Cc1c[nH]cn1)N[C@@H](COCc1ccc(F)cc1)C(=O)Nc1ccc(Oc2ccc(Cl)cc2)cc1` [Compound 132, (S)-2-(2-(1H-imidazol-5-yl)acetamido)-3-(4-fluorobenzyloxy)-N-(4-(4-chlorophenoxy)phenyl)propanamide]: ≤ 300 nM. With `O=C(Cn1cncn1)N[C@@H](COCc1ccccc1Cl)C(=O)Nc1ccc(Oc2ccc(F)cc2)cc1` [Compound 181, (S)-2-(2-(1H-1,2,4-triazol-1-yl)acetamido)-3-(2-chlorobenzyloxy)-N-(4-(4-fluorophenoxy)phenyl)propanamide], the IC50 was ≤ 300 nM.

For the molecule `O=C(Cn1cncn1)N[C@@H](COCc1ccccc1)C(=O)Nc1ccc(Sc2ccc(F)cc2)cc1` [Compound 178, (S)-2-(2-(1H-1,2,4-triazol-1-yl)acetamido)-3-(benzyloxy)-N-(4-(4-fluorophenylthio)phenyl)propanamide], the half-inhibitory concentration (IC50) is ≤ 300 nM. The same measure for `CC(C)N1CCN(CC(=O)N[C@@H](COCc2ccccc2)C(=O)Nc2ccc(Oc3ccc(F)cc3)cc2)CC1` [Compound 111, (S)-3-(benzyloxy)-N-(4-(4-fluorophenoxy)phenyl)-2-(2-(4-isopropylpiperazin-1-yl)acetamido)propanamide]: > 1000 nM; for `CC1CN(CC(=O)N[C@@H](COCc2ccccc2)C(=O)Nc2ccc(Oc3ccc(F)cc3)cc2)CC(C)O1` (stereo partly drawn) [Compound 265, (2S)-3-(benzyloxy)-2-(2-(2,6-dimethylmorpholino)acetamido)-N-(4-(4-fluorophenoxy)phenyl)propanamide]: ≤ 300 nM. The same measure for `O=C(Nc1ccc(Oc2ccc(F)cc2)cc1)[C@@H]1C[C@@H](Cc2ccc(F)cc2)CN1C(=O)Cn1cncn1` [Compound 141, (2S,4R)-1-(2-(1H-1,2,4-triazol-1-yl)acetyl)-4-(4-fluorobenzyl)-N-(4-(4-fluorophenoxy)phenyl)pyrrolidine-2-carboxamide]: ≤ 300 nM. `O=C(Cc1cc(Cl)ccc1Cl)NC(COCc1ccccc1)C(=O)Nc1ccc(Oc2ccccc2)cc1` (centres unmarked) [Compound 190, 3-(benzyloxy)-2-(2-(2,5-dichlorophenyl)acetamido)-N-(4-phenoxyphenyl)propanamide]: the half-maximal inhibitory concentration (IC50) lay within 300 to 1000 nM. Take `O=C(CCl)N[C@@H](COCc1ccccc1)C(=O)Nc1ccc(Oc2ccc(F)cc2)cc1` [Compound 136, (S)-3-(benzyloxy)-2-(2-chloroacetamido)-N-(4-(4-fluorophenoxy)phenyl)propanamide]: the IC50 was ≤ 300 nM. In the case of `COc1ccccc1CCC(=O)NC(COCc1ccccc1)C(=O)Nc1ccc(Oc2ccccc2)cc1` (centres unmarked) [Compound 394, N-(2-oxo-1-{[(phenylmethyl)oxy]methyl}-2-{[4-(phenyloxy)phenyl]amino}ethyl)-3-(2-methoxyphenyl)propanamide], the IC50 is > 1000 nM. The same measure for `CN(CC(=O)NC(COCc1ccccc1)C(=O)Nc1ccc(Oc2ccccc2)cc1)C(=O)c1ccccc1` (centres unmarked) [Compound 340, N-(2-oxo-1-{[(phenylmethyl)oxy]methyl}-2-{[4-(phenyloxy)phenyl]amino}ethyl)-N-benzoyl-N-methylaminoacetamide]: 300 to 1000 nM; for `O=C(CN1CCCC1)N[C@@H](COCc1ccccc1)C(=O)Nc1ccc(Oc2ccc(F)cc2)cc1` [Compound 215, (S)-3-(benzyloxy)-N-(4-(4-fluorophenoxy)phenyl)-2-(2-(pyrrolidin-1-yl)acetamido)propanamide]: 300 to 1000 nM. Next, `O=C(Nc1ccc(Oc2ccc(F)cc2)cc1)[C@@H]1C[C@@H](Cc2ccccc2)CN1C(=O)C1CCCO1` (stereo partly drawn) [Compound 92, (2S,4R)-4-benzyl-N-(4-(4-fluorophenoxy)phenyl)-1-(tetrahydrofuran-2-carbonyl)pyrrolidine-2-carboxamide]: ≤ 300 nM. Turning to `Cc1cc(Oc2ccc(NC(=O)[C@@H]3C[C@@H](Cc4ccc(F)cc4)CN3C(=O)Cn3cncn3)cc2)ccc1F` [Compound 73, (2S,4R)-1-(2-(1H-1,2,4-triazol-1-yl)acetyl)-N-(4-(4-fluoro-3-methylphenoxy)phenyl)-4-(4-fluorobenzyl)pyrrolidine-2-carboxamide], the IC50 was ≤ 300 nM.

For the molecule `O=C(CC(F)(F)F)NC(COCc1ccccc1)C(=O)Nc1ccc(Oc2ccccc2)cc1` (centres unmarked) [Compound 22, N-(3-(benzyloxy)-1-oxo-1-(4-phenoxyphenylamino)propan-2-yl)-3,3,3-trifluoropropanamide], the IC50 is 300 to 1000 nM. The same measure for `CC(=O)N1CCN(CC(=O)N[C@@H](COCc2ccccc2)C(=O)Nc2ccc(Oc3ccc(F)cc3)cc2)CC1` [Compound 236, (S)-2-(2-(4-acetylpiperazin-1-yl)acetamido)-3-(benzyloxy)-N-(4-(4-fluorophenoxy)phenyl)propanamide]: 300 to 1000 nM; for `O=C(Nc1ccc(Oc2ccc(F)cc2)cc1)[C@@H]1C[C@@H](Cc2cccs2)CN1C(=O)Cn1nccn1` [Compound 64, (2S,4S)-1-(2-(2H-1,2,3-triazol-2-yl)acetyl)-N-(4-(4-fluorophenoxy)phenyl)-4-(thien-2-ylmethyl)pyrrolidine-2-carboxamide]: ≤ 300 nM; for `O=C(CN1CCC(N2CCOCC2)CC1)N[C@@H](COCc1ccccc1)C(=O)Nc1ccc(Oc2ccc(F)cc2)cc1` [Compound 105, (S)-3-(benzyloxy)-N-(4-(4-fluorophenoxy)phenyl)-2-(2-(4-morpholinopiperidin-1-yl)acetamido)propanamide]: > 1000 nM.
